Laboratory results as given in patent US10781224B2, “Bis(oxymethyl)phosphinic acid and biogenic metal salts thereof as regulators of plant growth and development” (priority 2016, dated 2020).

Experiments:
Assay type in all cases: in vivo
[1] = system: corn (Krasnodar 385 MV variety); assay: Corn seed treatment with BHMPA salts: germination energy and germination rate
Procedure, shortened: (§1)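 Corn, winter wheat and rice seeds (50 per dish, on filter paper) were soaked for 1 h in BHMPA or its metal salts at 1·10^−6-1·10^−12%, with water as control. Germination energy was read on day 4 and germination rate on day 8 for wheat and day 7 for rice and corn, following GOST 12038-84, as the mean of four replicates.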

[2] = system: winter wheat (Vershin variety); assay: Winter wheat seed treatment with BHMPA salts: germination energy and germination rate
Procedure, shortened: as §1

[3] = system: corn (Krasnodar 385 MV variety); assay: Corn seed treatment with BHMPA salts: germinating power
Procedure, shortened: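 Seeds (50 per Petri dish on two layers of filter paper) soaked 1 h in BHMPA or its Ca, Mg, Na, Co, Mn, Cu or Zn salts at 1·10^−6-1·10^−12%, with water controls. Germination energy read on day 4, germination on day 8 (wheat) or day 7 (rice, corn), as % means of four replicates. Germinating power taken as root and sprout length plus wet and dry mass per 100 seedlings.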

[4] = comparative study vs Melaphen, 1·10^−10% solution
[5] = winter wheat Vershin, 1·10^−6% solution
[6] = winter wheat Vershin, 1·10^−7% solution
[7] = winter wheat Vershin, 1·10^−8% solution
[8] = winter wheat Vershin, 1·10^−9% solution
[9] = winter wheat Vershin, 1·10^−10% solution
[10] = winter wheat Vershin, 1·10^−11% solution
[11] = winter wheat Vershin, 1·10^−12% solution
[12] = winter wheat, comparative study vs Melaphen, 1·10^−9% solution
[13] = corn seeds, solution concentration 1 · 10^−6%, sodium salt of BHMPA
[14] = corn seeds, solution concentration 1 · 10^−7%, sodium salt of BHMPA
[15] = corn seeds, solution concentration 1 · 10^−8%, sodium salt of BHMPA
[16] = corn seeds, solution concentration 1 · 10^−9%, sodium salt of BHMPA
[17] = corn seeds, solution concentration 1 · 10^−10%, sodium salt of BHMPA
[18] = corn seeds, solution concentration 1 · 10^−11%, sodium salt of BHMPA
[19] = corn seeds, solution concentration 1 · 10^−12%, sodium salt of BHMPA

O=P([O-])(CO)CO.[Na+] [Na-salt, Sodium BHMPA Salt]
Germination energy ([1]; 1·10^−6% solution): 75.7%
Germination rate ([1]; 1·10^−6% solution): 78.3%
Germination energy ([1]; 1·10^−7% solution): 78.0%
Germination rate ([1]; 1·10^−7% solution): 81.8%
Germination energy ([1]; 1·10^−8% solution): 84.8%
Germination rate ([1]; 1·10^−8% solution): 87.5%
Germination energy ([1]; 1·10^−9% solution): 87.7%
Germination rate ([1]; 1·10^−9% solution): 91.7%
Germination energy ([1]; 1·10^−10% solution): 89.7%
Germination rate ([1]; 1·10^−10% solution): 93.0%
Germination energy ([1]; 1·10^−11% solution): 86.8%
Germination rate ([1]; 1·10^−11% solution): 89.5%
Germination energy ([1]; 1·10^−12% solution): 82.0%
Germination rate ([1]; 1·10^−12% solution): 85.5%
Germination energy [1, 4]: 85.7%
Germination rate [1, 4]: 94.0%
Germination energy [2, 5]: 84.4%
Germination rate [2, 5]: 86.0%
Germination energy [2, 6]: 86.7%
Germination rate [2, 6]: 89.0%
Germination energy [2, 7]: 90.2%
Germination rate [2, 7]: 94.0%
Germination energy [2, 8]: 92.3%
Germination rate [2, 8]: 95.3%
Germination energy [2, 9]: 88.4%
Germination rate [2, 9]: 92.0%
Germination energy [2, 10]: 85.0%
Germination rate [2, 10]: 88.0%
Germination energy [2, 11]: 83.2%
Germination rate [2, 11]: 86.3%
Germination energy [2, 12]: 87.3%
Germination rate [2, 12]: 93.7%
optimum concentration for treating corn seeds before sowing ([3]; corn): 1·10^−10%
Length, root [3, 13]: 4.5 cm
Length, root, + % to control [3, 13]: −4%
Length, sprout [3, 13]: 2.4 cm
Length, sprout, + % to control [3, 13]: −14%
Mass, dry, root [3, 13]: 0.99 g/100 plantlings
Mass, dry, root, + % to control [3, 13]: −19%
Mass, dry, sprout [3, 13]: 0.69 g/100 plantlings
Mass, dry, sprout, + % to control [3, 13]: −4%
Mass, wet, root [3, 13]: 5.95 g/100 plantlings
Mass, wet, root, + % to control [3, 13]: −12%
Mass, wet, sprout [3, 13]: 4.34 g/100 plantlings
Mass, wet, sprout, + % to control [3, 13]: −5%
Length, root [3, 14]: 4.9 cm
Length, root, + % to control [3, 14]: 4%
Length, sprout [3, 14]: 2.6 cm
Length, sprout, + % to control [3, 14]: −7%
Mass, dry, root [3, 14]: 1.03 g/100 plantlings
Mass, dry, root, + % to control [3, 14]: −15.5%
Mass, dry, sprout [3, 14]: 0.77 g/100 plantlings
Mass, dry, sprout, + % to control [3, 14]: 7%
Mass, wet, root [3, 14]: 6.72 g/100 plantlings
Mass, wet, root, + % to control [3, 14]: −1%
Mass, wet, sprout [3, 14]: 4.62 g/100 plantlings
Mass, wet, sprout, + % to control [3, 14]: 1%
Length, root [3, 15]: 5.0 cm
Length, root, + % to control [3, 15]: 6%
Length, sprout [3, 15]: 2.8 cm
Length, sprout, + % to control [3, 15]: 0%
Mass, dry, root [3, 15]: 1.18 g/100 plantlings
Mass, dry, root, + % to control [3, 15]: −3%
Mass, dry, sprout [3, 15]: 0.86 g/100 plantlings
Mass, dry, sprout, + % to control [3, 15]: 19%
Mass, wet, root [3, 15]: 6.93 g/100 plantlings
Mass, wet, root, + % to control [3, 15]: 2%
Mass, wet, sprout [3, 15]: 4.74 g/100 plantlings
Mass, wet, sprout, + % to control [3, 15]: 4%
Length, root [3, 16]: 5.2 cm
Length, root, + % to control [3, 16]: 11%
Length, sprout [3, 16]: 3.0 cm
Length, sprout, + % to control [3, 16]: 7%
Mass, dry, root [3, 16]: 1.25 g/100 plantlings
Mass, dry, root, + % to control [3, 16]: 2%
Mass, dry, sprout [3, 16]: 0.69 g/100 plantlings
Mass, dry, sprout, + % to control [3, 16]: 26%
Mass, wet, root [3, 16]: 7.08 g/100 plantlings
Mass, wet, root, + % to control [3, 16]: 4%
Mass, wet, sprout [3, 16]: 4.91 g/100 plantlings
Mass, wet, sprout, + % to control [3, 16]: 7%
Length, root [3, 17]: 5.5 cm
Length, root, + % to control [3, 17]: 17%
Length, sprout [3, 17]: 3.1 cm
Length, sprout, + % to control [3, 17]: 11%
Mass, dry, root [3, 17]: 1.30 g/100 plantlings
Mass, dry, root, + % to control [3, 17]: 6.5%
Mass, dry, sprout [3, 17]: 1.12 g/100 plantlings
Mass, wet, root [3, 17]: 7.19 g/100 plantlings
Mass, wet, sprout [3, 17]: 5.35 g/100 plantlings
Mass, wet, sprout, + % to control [3, 17]: 17%
Length, root [3, 18]: 5.3 cm
Length, root, + % to control [3, 18]: 13%
Length, sprout [3, 18]: 2.9 cm
Length, sprout, + % to control [3, 18]: 3.5%
Mass, dry, root [3, 18]: 1.26 g/100 plantlings
Mass, dry, root, + % to control [3, 18]: 3%
Mass, dry, sprout [3, 18]: 0.92 g/100 plantlings
Mass, dry, sprout, + % to control [3, 18]: 28%
Mass, wet, root [3, 18]: 6.88 g/100 plantlings
Mass, wet, root, + % to control [3, 18]: 1%
Mass, wet, sprout [3, 18]: 4.99 g/100 plantlings
Mass, wet, sprout, + % to control [3, 18]: 9%
Length, root [3, 19]: 4.6 cm
Length, root, + % to control [3, 19]: −2%
Length, sprout [3, 19]: 2.6 cm
Length, sprout, + % to control [3, 19]: −7%
Mass, dry, root [3, 19]: 0.95 g/100 plantlings
Mass, dry, root, + % to control [3, 19]: −22%
Mass, dry, sprout [3, 19]: 0.80 g/100 plantlings
Mass, dry, sprout, + % to control [3, 19]: 11%
Mass, wet, root [3, 19]: 6.12 g/100 plantlings
Mass, wet, root, + % to control [3, 19]: −10%
Mass, wet, sprout [3, 19]: 4.37 g/100 plantlings
Mass, wet, sprout, + % to control [3, 19]: −4%
effectiveness on germinating power ([3]; corn, 1·10^−6% and 1·10^−12% solutions): ineffective
Length, root, + % to control ([3]; corn, 1·10^−10% solution): 17%
Length, sprout, + % to control ([3]; corn, 1·10^−10% solution): 11%
Mass, dry, root, + % to control ([3]; corn, 1·10^−10% solution): 6.5%
Mass, dry, sprout, + % to control ([3]; corn, 1·10^−10% solution): 55.5%
Mass, wet, root, + % to control ([3]; corn, 1·10^−10% solution): 6%
Mass, wet, sprout, + % to control ([3]; corn, 1·10^−10% solution): 17%
